In patent US20140023589A1, “FRMD4A ANTAGONISTS AND THEIR USES” (CANCER RESEARCH TECHNOLOGY LIMITED, priority 2011, published 2014):
Entries after “also recorded” stand apart in the source; their conditions may differ.

Tests used:
[1] = system: normal human keratinocytes; experiment: Induced differentiation of normal human keratinocytes; assay type: cell-based
Source text: To determine the expression of FRMD4A mRNA in normal human skin we carried out in-situ hybridisations on normal human foreskin. […] Using the Zeiss PALM Laser Capture Microdissection system, samples were collected separately from the basal and granular layers of human abdomen skin sections. […] Levels of FRMD4A were contrary to this, with high levels in the less differentiated basal layer, which dropped to almost nothing in the more differentiated granular layer (FIG. 1B). Similarly, normal human keratinocytes grown in serum free culture were induced to differentiate, by the addition of AG1478 and BMP2/7 (FIG. 1C). Differentiation of the keratinocytes was confirmed by increased levels of transglutaminase in the presence of these agents alone compared to treatment with vehicle alone. Addition of both together led to expression of even higher levels of the differentiation marker TG-1. FRMD4A levels were high in the vehicle treated sample, but became barely detectable in the differentiated samples (FIG. 1C) showing that FRMD4A is associated with less differentiated cell types.

[2] = system: CD44 and FRMD4A staining; experiment: Immunostaining of cells grown on HA coated coverslips; assay type: cell-based, human
[3] = system: SCC13 back skin xenograft; experiment: SCC13 back skin xenograft, hyaluronic acid treatment; assay type: in vivo, mouse
Experimental: (§1) All mice used were NOD.Cg-Prkdc^scid I12rg^tm1Wj1/SzJ or NOD/SCID Gamma (NSG) as they are commonly known. Mice were originally purchased from the Jackson Laboratories (Maine, USA) and then bred in-house. Experiments were subject to Cancer Research UK ethical review and were performed under the terms of a U.K. Government Home Office license. Tongue xenografts were carried out using inhalation anaesthesia and injection into the mucosa with a 30 g needle and 1 ml syringe. Mice were grafted using inhalation anaesthesia. An area of skin on the back of each mouse was shaved and cleaned with a betadine solution. Using a 6 mm punch biopsy punch a full thickness wound was created, into which the silicone chamber was inserted and stapled in place. A preparation of cells could then be injected into the chamber. After one week the top of the silicone chamber was cut off to allow the tumour to develop exposed to the normal skin-air interface. After a further week the whole silicone chamber was carefully removed. Mice were scanned with the Xenogen IVIS following an i.p. injection of luciferin (10 μl/g).
Mice were grafted into the back skin with 1×10E6 SCC13 cells.
After one week an initial measurement was made with the Xenogen IVIS. Following this, each mouse was directly injected into the tumour with 200 μl of 0.1% HA. […]

[4] = system: SCC13 cells; experiment: Colony forming assay, SCC13; assay type: cell-based, human; conditions: plates coated with HA
Experimental: For colony forming assays, 100 cells were plated in triplicate in 10 cm plates. After 14 days, cultures were fixed and stained with 1% rhodamine B and 1% Nile blue (Acros Organic). Colony-forming efficiency was defined as the percentage of plated cells that formed a colony of three or more cells.

[5] = system: SCC cells; experiment: Incucyte timelapse growth of SCC cells (cell line not specified); assay type: cell-based, human; conditions: SCCs cultured on HA coated plates
Experimental: For Incucyte assays, 1000 cells were plated in triplicate for each condition, in a 48-well plate. Plates were imaged every 3 hours for 7 days.
Having established that FRMD4A has a functional role in SCC proliferation and tumour growth and that it is also modulating the differentiation of such cells, in part perhaps via cancer stem cells and is a key mediator of the Hippo pathway control in SCCs, the present inventors recognised that FRMD4A represents a potential target for therapeutic options. Currently many targeted antibody therapies are in clinical use or undergoing trials to determine their efficacy in the treatment of several malignant and non-malignant diseases. To test if any of the generated antibodies developed against FRMD4A may have a blocking effect on SCCs, the antibodies were added to cells grown in the Incucyte timelapse imaging system.

[6] = injection in the skin and knee joint; cited from earlier work
[7] = system: SCC25 tongue xenograft; experiment: SCC25 tongue xenograft, 17-DMAG treatment; assay type: in vivo, mouse; conditions: weekly i.p. injections, compared to vehicle control
Experimental: as §1
Mice were tongue grafted with 1×10E5 SCC25 cells. After one week an initial measurement was made with the Xenogen IVIS. Following this, each mouse was i.p injected with either 17-DMAG or vehicle control. […]

[8] = system: SCC13 cells; experiment: SCC13 cells grown in the presence of 17-DMAG in vitro; assay type: cell-based, human; conditions: range of concentrations

Molecule: COc1cc2ncnc(Nc3cccc(Cl)c3)c2cc1OC [AG1478]
- FRMD4A levels [1]: downregulation of FRMD4A levels
- TG1 levels ([1]; differentiation marker): upregulation of TG1 levels

Molecule: hyaluronic acid [HA]
- CD44 staining [2]: increase in CD44 staining
- nuclear FRMD4A staining [2]: loss of nuclear FRMD4A staining
- survival ([3]; HA injection of xenograft tumours): increased survival
- tumour growth rate ([3]; weekly intra-tumour injection, compared with PBS): reduced growth rate; also recorded: reduced the growth of the tumour
- average colony area [4]: reduction in average colony area
- average colony staining intensity [4]: reduction
- colony forming efficiency [4]: reduction in colony forming efficiency
- overall growth rate [5]: decrease in growth rate; also recorded: reduces the growth of SCCs
- toxic effects [6]: no apparent toxic effects

Molecule: CO[C@H]1/C=C\C=C(/C)C(=O)NC2=CC(=O)C(NCCN(C)C)=C(C[C@@H](C)C[C@H](OC)[C@H](O)[C@@H](C)/C=C(\C)[C@@H]1OC(N)=O)C2=O [17-DMAG, 17-Dimethylaminoethylamino-17-demethoxygeldanamycin]
- progression of tumours [7]: slower progression of their tumours
- killing of cells in vitro [8]: readily killed over a range of concentrations; also recorded: dramatic effect
